Data from patent publication US20230025807A1 (priority 2019, published 2023).
Counter-ions that a name gives are not always drawn. Like-named read-outs stand apart in the source and are kept apart here.

Target: T1, Human CD38 (Homo sapiens, UniProt P28907)
T1 construct: purchased BPS Bioscience 79287
T1 sequence (P28907 1-300): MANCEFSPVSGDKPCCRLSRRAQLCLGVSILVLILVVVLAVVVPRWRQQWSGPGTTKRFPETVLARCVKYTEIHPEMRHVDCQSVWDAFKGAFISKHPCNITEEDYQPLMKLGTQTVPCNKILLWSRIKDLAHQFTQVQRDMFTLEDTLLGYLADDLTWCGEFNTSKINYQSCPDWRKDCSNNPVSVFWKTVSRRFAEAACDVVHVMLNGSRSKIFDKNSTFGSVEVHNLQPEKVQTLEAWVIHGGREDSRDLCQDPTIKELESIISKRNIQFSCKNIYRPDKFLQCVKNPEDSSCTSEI
Assay: biochemical
Description: CD38 hydrolase buffer (4×) was thawed on ice and 1×CD38 hydrolase buffer was prepared by diluting 4×CD38 hydrolase buffer with water. CD38 hydrolase enzyme was diluted to […] with 1×CD38 hydrolase buffer (10 ng/well). Master mix was prepared by mixing equal volumes of water and CD38 hydrolase buffer (4×) and 10 μl of the mix was added to all the wells. Following master mix addition, 10 μl of the inhibitors and 20 μl of CD38 hydrolase enzyme were added to the wells. For wells designated blank, 10 μl and 20 μl of 1×CD38 hydrolase buffer was added respectively in place of CD38 enzyme and inhibitors. The plate was covered and incubated 30 min at room temperature with slow shaking at 400 rpm. After 30 min incubation, the plate was removed and 10 μl of diluted ε-NAD substrate was added to all the wells. The plate is incubated for 10 min, spun at 1200 rpm for 30 secs to remove bubbles and read in Tecan Spark using a fluorometer setting of excitation 300 nm and emission 410 nm. The reading for the blank was subtracted from all the values. IC50 for the test compounds were determined by using Graphpad prism software v7.0.

SMILES | IC50 [nM] | IC50 (30 min pre-incubation at room temperature, ε-NAD substrate 10 min, excitation 300 nm / emission 410 nm, read-out: hCD38 IC50) [nM]
COCCO[C@H]1CC[C@H](NC(=O)c2cc(-n3ccnc3)cc3c(C=O)c[nH]c23)CC1 [Example 15, 3-formyl-5-(1H-imidazol-1-yl)-N-((1r,4r)-4-(2-methoxyethoxy)cyclohexyl)-1H-indole-7-carboxamide] | 18000 | –
COCCO[C@H]1CC[C@H](NC(=O)c2cc(-n3ccnc3)cc3ccn(C)c23)CC1 [Example 54, 5-(1H-imidazol-1-yl)-N-((1r,4r)-4-(2-methoxyethoxy)cyclohexyl)-1-methyl-1H-indole-7-carboxamide] | 375 | –
COCCO[C@H]1CC[C@H](NC(=O)c2cc(-n3ccnc3)cc3[nH]cc(C#N)c23)CC1 [Example 56, 3-cyano-6-(1H-imidazol-1-yl)-N-((1r,4r)-4-(2-methoxyethoxy)cyclohexyl)-1H-indole-4-carboxamide] | 9.8 | –
COCCO[C@H]1C[C@H](NC(=O)c2cc(-c3cncs3)cc3[nH]ccc23)C1 [Example 30, N-((1r,3r)-3-(2-methoxyethoxy)cyclobutyl)-6-(thiazol-5-yl)-1H-indole-4-carboxamide] | – | 761
COCCO[C@H]1CC[C@H](NC(=O)c2cc(-n3cccn3)cc3cc[nH]c23)CC1 [Example 2, N-((1r,4r)-4-(2-methoxyethoxy)cyclohexyl)-5-(1H-pyrazol-1-yl)-1H-indole-7-carboxamide] | > 100000 | –
O=C(NC12CC3CC(CC(O)(C3)C1)C2)c1cc(-c2cncs2)cc2[nH]ccc12 [Example 28, N-((1r,3s,5R,7S)-3-hydroxyadamantan-1-yl)-6-(thiazol-5-yl)-1H-indole-4-carboxamide] | 523 | –
COCCO[C@H]1CC[C@H](NC(=O)c2cc(-n3ccnc3)cc3c(CN)c[nH]c23)CC1 [Example 17, 3-(aminomethyl)-5-(1H-imidazol-1-yl)-N-((1r,4r)-4-(2-methoxyethoxy)cyclohexyl)-1H-indole-7-carboxamide] | 890 | –
COCCO[C@H]1CC[C@H](NC(=O)c2cc(-c3cncs3)cc3c2ccn3CC2COC2)CC1 [Example 50, N-((1r,4r)-4-(2-methoxyethoxy)cyclohexyl)-1-(oxetan-3-ylmethyl)-6-(thiazol-5-yl)-1H-indole-4-carboxamide] | 503 | –
COCCO[C@H]1CC[C@H](NC(=O)c2cc(-c3ncc[nH]3)cc3cc[nH]c23)CC1 [Example 6, 5-(1H-imidazol-2-yl)-N-((1r,4r)-4-(2-methoxyethoxy)cyclohexyl)-1H-indole-7-carboxamide] | > 100000 | –
COCCO[C@H]1CC[C@H](NC(=O)c2nc(-n3ccnc3)cc3cc[nH]c23)CC1 [Example 59, 5-(1H-imidazol-1-yl)-N-((1r,4r)-4-(2-methoxyethoxy)cyclohexyl)-1H-pyrrolo[2,3-c]pyridine-7-carboxamide] | 6 | –
COCC(C)(C)NC(=O)c1cc(-c2cncs2)cc2[nH]ccc12 [Example 42, N-(1-methoxy-2-methylpropan-2-yl)-6-(thiazol-5-yl)-1H-indole-4-carboxamide] | 3600 | –
CC(C)(O)CNC(=O)c1cc(-c2cncs2)cc2[nH]ccc12 [Example 43, N-(2-hydroxy-2-methylpropyl)-6-(thiazol-5-yl)-1H-indole-4-carboxamide] | 5100 | –
O=C(NC1CCNCC1)c1cc(-c2cncs2)cc2[nH]ccc12 [Example 35, N-(piperidin-4-yl)-6-(thiazol-5-yl)-1H-indole-4-carboxamide hydrochloride] | 7800 | –
O=C(NCc1c(F)cccc1C(F)(F)F)c1cc(-c2cncs2)cc2[nH]ccc12 [Example 25, N-(2-fluoro-6-(trifluoromethyl)benzyl)-6-(thiazol-5-yl)-1H-indole-4-carboxamide] | 78 | –
COCCO[C@H]1CC[C@H](NC(=O)c2cc(-n3ccnc3)cc3c(CN(C)C)c[nH]c23)CC1 [Example 16, 3-((dimethylamino)methyl)-5-(1H-imidazol-1-yl)-N-((1r,4r)-4-(2-methoxyethoxy)cyclohexyl)-1H-indole-7-carboxamide] | 800 | –
